Laboratory results taken from publication PMC12319374, “Efficient and Rapid Arylation of NH₂‐Unprotected Bromobisindole Ethanamines via Suzuki‐Miyaura Coupling: Generating New Leads Against Leishmania” (Chemistry (Weinheim an Der Bergstrasse, Germany), 2025).
“And” between values parts separate entries of the source, which are not always exact repeats. Equal entries are not always repeated. “Also recorded” adds a separate entry of the source.

How the values were obtained:
[1] = tested on: L. infantum MHOM/TN/80/IPT1 promastigotes; test: L. infantum promastigotes viability assay (MTS); assay type: cell-based, Leishmania infantum; conditions: 72 h; for IC50 / inhibition at 20 µM: Leishmania infantum; for IC50: scalar dilutions 2:3 from 20 to 1.17 µM, mean (95% CI); for inhibition at 20 µM / Inhibition of L. infantum at 20 µM (%): single dose 20 µM
Protocol: (§1) Finally, eighteen compounds were first screened for efficacy against L. infantum MHOM/TN/80/IPT1 promastigotes at a single dose of 20 µM for 72 hours.
(§2) L. infantum MHOM/TN/80/IPT1 (WHO international reference strain) was purchased from ATCC (ATCC® 50134™) and was cultured in Evans's Modified Tobie Medium (EMTM) at 26–28 °C. To test the compounds, parasites were resuspended in RPMI-PY medium as described previously. The human monocytic cell line THP-1 (ECACC 88081201) was cultured in RPMI-1640 medium supplemented with 10% heat-inactivated Fetal Bovine Serum (FBS), 100 μg/ml streptomycin, […] and maintained in a humidified incubator at 37 °C and 5% CO2. All the cell culture reagents were purchased from Sigma-Aldrich (St. Louis, MO, USA).
Late log/stationary phase L. infantum promastigotes were resuspended in RPMI-PY medium at a density of 2.5×10^6 parasites/mL in 96-well plates (100μL/well). The anti-parasitic activity of the eighteen compounds of the library was initially investigated at a single dose of 20 μM for 72 h at 26 °C. […] Not treated parasites were included as negative control. As positive control, the anti-leishmanial drug miltefosine (Sigma-Aldrich, Milan, Italy) was used. Each condition was carried out in duplicate. To evaluate the promastigotes viability, the CellTiter 96H Aqueous Non-Radioactive Cell Proliferation Assay (Promega), based on the ability of viable cells to convert a soluble tetrazolium salt [3-(4.5-dimethylthiazol-2-yl)-5-(3-carboxymethoxy-phenyl)-2-(4-sulfophenyl)-2H-tetrazolium. MTS] to a formazan product, was performed. To this end, 20 μL of MTS/PMS (phenazinemethosulfate, Sigma-Aldrich) was added to 100 μL of culture medium and incubated at 26°C until formazan production. Absorbance was recorded on a Microplate Reader (Infinite® F50 Plus, Tecan) at 492 nm. The IC50 values were calculated using nonlinear regression curves in GraphPad Prism 8.0 (GraphPad Software,Inc., San Diego, CA). The equation used for data fitting was Y= 100/(1 + 10∧((Log IC50 −X)*HillSlope)) (hillslope not constrained), where X is the log of concentration and Y is the normalized response. […]

[2] = tested on: intracellular L. infantum amastigotes; test: Anti-amastigote assay on infected THP-1 cells; assay type: cell-based, Leishmania infantum; conditions: 2 µM, 72 h treatment, differentiated THP-1 infected 24 h
Protocol: Figure 2 Effect of 3ca, 3af, and 3aq on intracellular L. infantum amastigotes. Differentiated THP‐1 cells were infected for 24 hours at 37°C; then, the different compounds were added at 2 µM, and the efficacy on intracellular amastigotes was calculated after 72 hours of treatment. Miltefosine was used as a positive control. (A) Percentages of infection are presented as mean ± SD. Ordinary one‐way ANOVA with Dunnett's multiple comparisons test. *p ≤ 0.05, **p ≤ 0.01 *** p ≤ 0.001. (B) Representative merged images showing THP‐1 cells stained with Hoechst dye (blue) and Leishmania amastigotes stained with CFSE (green).
The activity of compounds 3af, 3ca, and 3aq against intracellular amastigotes was evaluated in THP-1 infected cells. Briefly, THP-1 cells were seeded in a 12-well plate with a density of 3 × 10^5 cells/well and, to induce differentiation into macrophage-like cells, were treated with 20 ng/mL phorbol myristic acid (PMA) for 48 h. After differentiation, cells were infected for 24 h with L. infantum MHOM/TN/80/IPT1 promastigotes stained with carboxyfluorescein succinimidyl ester (eBioscience™ CFSE, Invitrogen) as described in reference, with a parasite-to-cell ratio of 10:1. Non-internalized promastigotes were then removed through medium replacement, and infected cells were treated with 3af, 3ca, and 3aq or with the positive control miltefosine for 72 h at concentrations of 2, 10, and 20 μM. To monitor the infection, cells were washed, formaldehyde/methanol fixed, stained with Hoechst dye, and observed with a fluorescence microscope at 5X or 10X magnification. For each field, two images were acquired: one with excitation at 340-390 nm (for Hoechst dye) and the other with excitation at 460-495 nm (for CFSE). Automated cell counting of single-color images was performed with ImageJ software to monitor the rate of infection, which was determined by normalizing the amastigote count from each green (CFSE) image to the THP-1 cell count from the corresponding blue (Hoechst) image. At least 500 THP-1 cells were counted for each condition. […]

THP-1 cells = test: Evaluation of cytotoxicity on THP-1 cells (MTS); assay type: cell-based, human; conditions: for Cytotoxicity on THP‐1 (100, 20, 4 µM) (%): 72 h, PMA-differentiated THP-1; for SI (Selectivity index = CC50/IC50): CC50 THP-1 (72 h) / IC50 L. infantum promastigotes (72 h)
Protocol: as §1, §2
(§3) The cytotoxicity of the compounds was assessed on THP-1 cells seeded at a density of 5 × 10^5 cells per mL, 100μL/well in a 96-well plate and treated for 72 h with 20 ng/mL phorbol myristic acid (PMA) to induce differentiation into macrophages like cells. After cell adhesion to the plate, each molecule was tested at 4, 20 and 100 μM for 72 h at 37 °C.
(§4) Three selected compounds were further evaluated at different concentration, obtained from scalar dilutions 1:2 (from 100 µM to 3.12 μM) for 72 h at 37°C. The negative control (untreated THP-1 cells) and the positive control (miltefosine) were included in each experiment. Each condition was carried out in duplicate. To evaluate the compounds cytotoxicity, the CellTiter 96H Aqueous Non-Radioactive Cell Proliferation Assay (Promega), was used as described before. […]

[3] = Evaluation of cytotoxicity on THP-1 cells (MTS); assay type: cell-based, human; conditions: human; 72 h, scalar dilutions 1:2 from 100 to 3.12 µM; mean (95% CI); read-out: THP‐1 CC50 (µM) (95% CI)
Protocol: as §1, §2, §3, §4

[4] = tested on: L. infantum promastigotes; conditions: cited from earlier work; for IC50: read-out: IC50 against L. infantum promastigotes
[5] = tested on: human macrophage‐type THP‐1 cell; set-up: method as in PMID 38870204; conditions: cited from earlier work
[6] = target: L. donovani DNA topoisomerase I; set-up: method as in PMID 17922678; conditions: read-out: IC50 (DNA topoisomerase I poison); cited from earlier work
L. donovani = tested on: L. donovani; set-up: method as in PMID 23517732; conditions: read-out: IC50 against L. donovani; cited from earlier work
[7] = set-up: method as in PMID 38870204; conditions: cited from earlier work
mammalian cells = tested on: mammalian cells; set-up: method as in PMID 34984300; conditions: cited from earlier work
Leishmania infection = tested on: Leishmania infection; set-up: method as in PMID 38870204; conditions: mouse infection model; cited from earlier work

Row | SMILES | IC50 [1] [µM] | inhibition at 20 µM [1] [%] | Effect on infection (intracellular amastigotes) [2] | Cytotoxicity on THP‐1 (100, 20, 4 µM) (%) (THP-1 cells; 4 µM) | Cytotoxicity on THP‐1 (100, 20, 4 µM) (%) (THP-1 cells; 20 µM) | Cytotoxicity on THP‐1 (100, 20, 4 µM) (%) (THP-1 cells; 100 µM) | SI (Selectivity index = CC50/IC50) (THP-1 cells) | CC50 at 72 h [3] [µM] | further results
1 | C=Cc1ccc(-c2ccc3c(C(CN)c4c[nH]c5cc(-c6ccc(C=C)cc6)ccc45)c[nH]c3c2)cc1 [3af, 2,2-bis(6-(4-vinylphenyl)-1H-indol-3-yl)ethan-1-amine] | 1.1 | > 98 | significant reduction in the infection; also recorded: significant activity | −14 | 97% | 78 | 21.8 | 24 | Inhibition of L. infantum at 20 µM (%) [1]: 98.7%
2 | NCC(c1c[nH]c2cc(Br)ccc12)c1c[nH]c2cc(Br)ccc12 [1a, 2,2‐bis(6‐bromo‐1H‐indol‐3‐yl) ethanamine] |  |  |  |  |  |  |  |  | Activity against L. infantum [4]: active
3 | NCC(c1c[nH]c2c(-c3ccccc3)cccc12)c1c[nH]c2c(-c3ccccc3)cccc12 [3ca, 2,2-bis(7-phenyl-1H-indol-3-yl)ethan-1-amine] | 1.7 | > 98 | significant reduction in the infection; also recorded: significant activity | −19 | 98% | 89 | 10.7 | 18.1 | Inhibition of L. infantum at 20 µM (%) [1]: 98.0%
4 | NCC(c1c[nH]c2cc(-c3cccc4[nH]ccc34)ccc12)c1c[nH]c2cc(-c3cccc4[nH]ccc34)ccc12 [3aq, 2,2-di(1H,1'H-[4,6'-biindol]-3'-yl)ethan-1-amine] | 2.8 | 96.9 | significant reduction in the infection; also recorded: significant activity | −16 | 72.9% and 73% | 89 | 5.2 | 14.6 | 
5 | Clc1ccc(CNCC(c2c[nH]c3cc(Br)ccc23)c2c[nH]c3cc(Br)ccc23)cc1 [I] |  |  |  |  |  |  |  |  | CC50 [5]: 11.7 µM; IC50 [4]: 2.7 µM
6 | c1ccc2c(Cc3c[nH]c4ccccc34)c[nH]c2c1 [DIM, 3,3′‐Diindolylmethane] |  |  |  |  |  |  |  |  | IC50 [6]: 1.2 µM
7 | O=[N+]([O-])c1ccc(C(c2c[nH]c3ccc(I)cc23)c2c[nH]c3ccc(I)cc23)cc1 [II] |  |  |  |  |  |  |  |  | IC50 (L. donovani): < 10 µM
8 | CCOC(=O)c1c(C(=O)OC)cn(CC(c2cn(C)c3ccccc23)c2cn(C)c3ccccc23)c1C [URB1483] |  |  |  |  |  |  |  |  | Water solubility [7]: poor; Cytotoxicity in mammalian cells (mammalian cells): no quantifiable cytotoxicity; Outcome of in vivo studies (Leishmania infection): failed; IC50 [4]: 3.7 µM
